In assay [1] the target is EqBuChE (Equus caballus, UniProt P81908). Description: biochemical. The following applies: EqBuChE IC50.
Assay [2] addresses T1, hAChE (human erythrocyte membranes as a AChE source) (Homo sapiens, UniProt P22303).
T1 construct: human erythrocyte membranes as a AChE source; from tissue; host or cells: human erythrocyte membranes
The assay is described as follows: acetylcholinesterase (AChE) activity, modified Ellman method. The format is biochemical.

Where [3] appears, read: IC50, enzyme not named in the examples, AChE per the Table.
Setting [4] is: hAChE IC50, modified Ellman method, acetylthiocholine iodide substrate, pH=7.4.

The term IC50 denotes the concentration that gives 50% inhibition. Low readings indicate greater potency, high ones weaker potency.

T1 sequence (P22303 32-617 isoform P22303-2 limits assumed): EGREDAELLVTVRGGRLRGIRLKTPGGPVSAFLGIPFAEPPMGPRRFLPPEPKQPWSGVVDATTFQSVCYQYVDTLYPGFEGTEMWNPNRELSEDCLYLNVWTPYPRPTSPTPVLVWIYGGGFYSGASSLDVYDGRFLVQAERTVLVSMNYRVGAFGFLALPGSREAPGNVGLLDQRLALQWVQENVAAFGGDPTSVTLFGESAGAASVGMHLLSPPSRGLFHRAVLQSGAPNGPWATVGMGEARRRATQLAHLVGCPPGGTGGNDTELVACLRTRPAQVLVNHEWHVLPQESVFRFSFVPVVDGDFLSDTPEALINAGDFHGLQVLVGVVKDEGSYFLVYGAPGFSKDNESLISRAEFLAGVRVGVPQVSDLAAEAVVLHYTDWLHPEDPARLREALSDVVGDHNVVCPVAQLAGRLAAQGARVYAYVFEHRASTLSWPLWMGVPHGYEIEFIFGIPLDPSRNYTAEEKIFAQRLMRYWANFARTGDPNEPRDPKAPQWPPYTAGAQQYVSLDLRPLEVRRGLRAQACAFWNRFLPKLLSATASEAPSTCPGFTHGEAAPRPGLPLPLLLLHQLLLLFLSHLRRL
Chain of EqBuChE (P81908 whole entry): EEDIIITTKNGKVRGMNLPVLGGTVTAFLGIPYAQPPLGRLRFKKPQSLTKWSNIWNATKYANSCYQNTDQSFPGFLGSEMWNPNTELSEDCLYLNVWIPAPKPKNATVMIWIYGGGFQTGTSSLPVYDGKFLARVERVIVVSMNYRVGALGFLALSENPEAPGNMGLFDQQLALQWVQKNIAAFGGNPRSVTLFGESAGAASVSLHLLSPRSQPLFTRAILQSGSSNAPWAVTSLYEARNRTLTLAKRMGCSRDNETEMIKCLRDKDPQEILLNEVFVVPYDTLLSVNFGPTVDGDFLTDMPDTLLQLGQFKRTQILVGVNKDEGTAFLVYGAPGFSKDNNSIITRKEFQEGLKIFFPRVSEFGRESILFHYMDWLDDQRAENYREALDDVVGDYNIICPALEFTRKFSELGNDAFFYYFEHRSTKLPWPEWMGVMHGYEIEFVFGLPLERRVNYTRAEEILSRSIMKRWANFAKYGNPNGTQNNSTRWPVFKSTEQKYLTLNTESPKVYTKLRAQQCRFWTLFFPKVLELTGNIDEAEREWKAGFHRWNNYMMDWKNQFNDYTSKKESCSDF

`COc1ccc2c(c1)CCC(CC1C=CN(Cc3ccccc3C)C=C1C(C)=O)C2=O` (racemic) [Compound 160, 2-[[3-acetyl-1-(o-tolylmethyl)-4H-pyridin-4-yl]methyl]-6-methoxy-tetralin-1-one]: the half-inhibitory concentration (IC50) in assay [1] was found to be 8270 nM.
Same read-out and setting: in the case of `COc1ccc2c(c1)CCC(CC1C=CN(Cc3ccccc3C)C=C1C(C)=O)C2=O` (single isomer, unassigned) [Compound 160-B, 2-[[3-acetyl-1-(o-tolylmethyl)-4H-pyridin-4-yl]methyl]-6-methoxy-tetralin-1-one] it was 5640 nM.
On the same count and under the same terms, in the case of `COc1ccc2c(c1)CCC(CC1C=CN(Cc3ccccc3C)C=C1C(C)=O)C2=O` (single isomer, unassigned) [Compound 160-C, 2-[[3-acetyl-1-(o-tolylmethyl)-4H-pyridin-4-yl]methyl]-6-methoxy-tetralin-1-one] it was 4700 nM.
As for `COc1cc2c(cc1OC)C(=O)C(Cc1cc[n+](Cc3ccccc3)cc1)C2` (stereo not drawn) [Compound 23, 1-Benzyl-4-((5,6-dimethoxy-1-oxo-2,3-dihydro-1H-inden-2-yl)methyl)pyridinium iodide], the 50% inhibitory concentration (IC50) in assay [2] (setting [3]) worked out at 36.8 nM.
For the molecule `COc1cc2c(cc1OC)C(=O)C(Cc1cc[n+](Cc3ccccc3)cc1C#N)C2` (stereo not drawn) [Compound 26, 1-Benzyl-3-cyano-4-(5,6-dimethoxy-1-oxo-2,3-dihydro-1H-inden-2-yl)methylpyridinium iodide], the values for the concentration for half-maximal inhibition (IC50) in assay [2] (setting [3]) and in assay [2] (setting [4]) were 11.2 nM and 11.3 nM, respectively.
Regarding `COc1cc2c(cc1OC)C(=O)C(CC1C=CN(Cc3ccccc3)C=C1C#N)C2` (stereo not drawn) [Compound 27, 1-Benzyl-4-(5,6-dimethoxy-1-oxo-2,3-dihydro-1H-inden-2-yl)methyl-1,4-dihydropyridine-3-carbonitrile], in assay [2] (setting [3]), the half-maximal inhibitory concentration (IC50) was determined as 175 nM.
In assay [1], `COc1ccc(C(=O)N(CCC2C=CN(Cc3ccccc3)C=C2C(C)=O)c2ccccc2)cc1OC` (stereo not drawn) [Compound 32, N-[2-(3-acetyl-1-benzyl-4H-pyridin-4-yl)ethyl]-3,4-dimethoxy-N-phenyl-benzamide] had an IC50 of 6210 nM.
Turning to `COc1cc2c(cc1OC)C(=O)C(Cc1cc[n+](Cc3ccccc3)cc1C(C)=O)C2` (stereo not drawn) [Compound 33, 1-Benzyl-3-actyl-4-(5,6-dimethoxy-1-oxo-2,3-dihydro-1H-inden-2-yl)methyl pyridinium bromide], half-maximal inhibition in assay [2] (setting [3]) (IC50) was put at 18 nM.
The molecule `COc1cc2c(cc1OC)C(=O)C(CC1C=CN(Cc3ccccc3)C=C1C(C)=O)C2` (stereo not drawn) [Compound 34, 1-Benzyl-4-(5,6-dimethoxy-1-oxo-2,3-dihydro-1H-inden-2-yl)methyl-1,4-dihydropyridine-3-acetyl] yielded an IC50 in assay [2] (setting [3]) of 528 nM.
`COc1ccc(C(=O)N(CCCC2C=CN(Cc3ccccc3)C=C2C(C)=O)c2ccccc2)cc1OC` (stereo not drawn) [Compound 36, N-[3-(3-acetyl-1-benzyl-4H-pyridin-4-yl)propyl]-3,4-dimethoxy-N-phenyl-benzamide] showed an IC50 in assay [1] of 4600 nM.
Still for that read-out and setting: in the case of `COc1ccc2c(c1)CCC(CC1C=CN(Cc3ccccc3F)C=C1C(C)=O)C2=O` (stereo not drawn) [Compound 55, 2-[[3-acetyl-1-[(2-fluorophenyl)methyl]-4H-pyridin-4-yl]methyl]-6-methoxy-tetralin-1-one] it was 6010 nM.
`COc1ccc2c(c1)CCC(CC1C=CN(Cc3ccccc3C)C=C1C(C)=O)C2=O` (stereo not drawn) [Compound 59, 2-[[3-acetyl-1-(o-tolylmethyl)-4H-pyridin-4-yl]methyl]-6-methoxy-tetralin-1-one]: the half-maximal inhibitory concentration (IC50) in assay [1] is 8270 nM.
In assay [1], `COc1ccc2c(c1)CCC(CC1C=CN(Cc3cccc(C)c3)C=C1C(C)=O)C2=O` (stereo not drawn) [Compound 61, 2-[[3-acetyl-1-(m-tolylmethyl)-4H-pyridin-4-yl]methyl]-6-methoxy-tetralin-1-one] yielded a half-inhibitory concentration (IC50) of 4020 nM.
In assay [1], `COc1ccc2c(c1)CCC(CC1C=CN(Cc3ccccc3C(F)(F)F)C=C1C(C)=O)C2=O` (stereo not drawn) [Compound 67, 2-[[3-acetyl-1-[[2-(trifluoromethyl)phenyl]methyl]-4H-pyridin-4-yl]methyl]-6-methoxy-tetralin-1-one] gave an IC50 of 3050 nM.
For the molecule `COc1cc2c(cc1OC)C(=O)C(CC1C=CN(Cc3cccc(Cl)c3)C=C1C(C)=O)C2` (stereo not drawn) [Compound 77, 2-[[3-acetyl-1-[(3-chlorophenyl)methyl]-4H-pyridin-4-yl]methyl]-5,6-dimethoxy-indan-1-one], the IC50 in assay [2] (setting [4]) is 543 nM; in assay [1], 13500 nM.
In the case of `COc1ccc2c(c1)CCC(Cc1cc[n+](Cc3ccccc3)cc1C(C)=O)C2=O` (stereo not drawn) [Compound 82, 2-[(3-acetyl-1-benzyl-pyridin-1-ium-4-yl)methyl]-6-methoxy-tetralin-1-one chloride], the IC50 in assay [2] (setting [4]) turned out to be 76 nM; in assay [1], 371 nM.
As to `COc1ccc2c(c1)CCC(Cc1cc[n+](Cc3ccccc3)cc1Br)C2=O` (stereo not drawn) [Compound 117, 2-[(1-benzyl-3-bromo-pyridin-1-ium-4-yl)methyl]-6-methoxy-tetralin-1-one bromide], the results for the concentration for half-maximal inhibition (IC50) in assay [2] (setting [4]) and in assay [1] were 20 nM and 447 nM, respectively.
Take `COc1ccc2c(c1)CCC(Cc1cc[n+](Cc3cccc(C)c3)cc1Br)C2=O` (stereo not drawn) [Compound 118, 2-[[3-bromo-1-(m-tolylmethyl)pyridin-1-ium-4-yl]methyl]-6-methoxy-tetralin-1-one bromide]: the figures for the IC50 in assay [2] (setting [4]) and in assay [1] were 16.5 nM and 664 nM, respectively.
On the same counts, the results for `COc1ccc2c(c1)CCC(Cc1cc[n+](Cc3ccccc3)cc1C(C)=O)C2=O` (stereo not drawn) [Compound 119, 2-[(3-acetyl-1-benzyl-pyridin-1-ium-4-yl)methyl]-6-methoxy-tetralin-1-one bromide] are 71 nM and 412 nM.
With `COc1ccc2c(c1)CCC(Cc1cc[n+](Cc3cccc(C)c3)cc1C(C)=O)C2=O` (stereo not drawn) [Compound 120, 2-[[3-acetyl-1-(m-tolylmethyl)pyridin-1-ium-4-yl]methyl]-6-methoxy-tetralin-1-one bromide], the values for the IC50 in assay [2] (setting [4]) and in assay [1] were 110 nM and 596 nM, respectively.
The matching figures for `COc1ccc2c(c1)CCC(Cc1cc[n+](Cc3ccccc3C)cc1C(C)=O)C2=O` (stereo not drawn) [Compound 121, 2-[[3-acetyl-1-(o-tolylmethyl)pyridin-1-ium-4-yl]methyl]-6-methoxy-tetralin-1-one bromide]: 10 nM and 433 nM.
`COc1ccc2c(c1)CCC(Cc1cc[n+](Cc3cccc(Cl)c3)cc1C(C)=O)C2=O` (stereo not drawn) [Compound 122, 2-[[3-acetyl-1-[(3-chlorophenyl)methyl]pyridin-1-ium-4-yl]methyl]-6-methoxy-tetralin-1-one bromide]: the values for the IC50 in assay [2] (setting [4]) and in assay [1] were 71 nM and 496 nM, respectively.
On to `COc1ccc2c(c1)CCC(Cc1cc[n+](Cc3cccc([N+](=O)[O-])c3)cc1C(C)=O)C2=O` (stereo not drawn) [Compound 123, 2-[[3-acetyl-1-[(3-nitrophenyl)methyl]pyridin-1-ium-4-yl]methyl]-6-methoxy-tetralin-1-one bromide], for which the IC50 was determined as 78.6 nM in assay [2] (setting [4]) and 1320 nM in assay [1].
On to `COc1ccc2c(c1)CCC(Cc1cc[n+](Cc3cccc(C(F)(F)F)c3)cc1C(C)=O)C2=O` (stereo not drawn) [Compound 124, 2-[[3-acetyl-1-[[3-(trifluoromethyl)phenyl]methyl]pyridin-1-ium-4-yl]methyl]-6-methoxy-tetralin-1-one bromide], for which the IC50 in assay [2] (setting [4]) turned out to be 308 nM; in assay [1] it was 2170 nM.
Take `COc1cc2c(cc1OC)C(=O)C(Cc1cc[n+](Cc3ccccc3)cc1C(C)=O)CC2` (stereo not drawn) [Compound 132, 2-[(3-actyl-1-benzyl-pyridin-1-ium-4-yl)methyl]-6,7-dimethoxy-tetralin-1-one bromide]: the IC50 in assay [2] (setting [4]) amounted to 24.2 nM.
`CC(=O)c1c[n+](Cc2ccccc2C)ccc1CC1Cc2cc(Cl)ccc2C1=O` (stereo not drawn) [Compound 136, 2-[[3-acetyl-1-(o-tolylmethyl)pyridin-1-ium-4-yl]methyl]-5-chloro-indan-1-one bromide] yielded an IC50 in assay [2] (setting [4]) of 262 nM.
As for `COc1cc2c(cc1OC)C(=O)/C(=C/c1cc[n+](Cc3ccccc3)cc1C(C)=O)C2` [Compound 149, (2E)-2-[(3-actyl-1-benzyl-pyridin-1-ium-4-yl)methylene]-5,6-dimethoxy-indan-1-one bromide], in assay [2] (setting [4]), the IC50 amounted to 20.1 nM.
As for `COc1ccc2c(c1)CCC(CC1C=CN(Cc3ccc(F)cc3)C=C1C(C)=O)C2=O` (stereo not drawn) [Compound 155, 2-[[3-acetyl-1-[(4-fluorophenyl)methyl]-4H-pyridin-4-yl]methyl]-6-methoxy-tetralin-1-one], the half-inhibitory concentration (IC50) in assay [1] came to 2270 nM.
For `COc1ccc2c(c1)CCC(CC1C=CN(Cc3cccc(F)c3)C=C1C(C)=O)C2=O` (stereo not drawn) [Compound 156, 2-[[3-acetyl-1-[(3-fluorophenyl)methyl]-4H-pyridin-4-yl]methyl]-6-methoxy-tetralin-1-one], inhibition in assay [1] was half-maximal at 4400 nM (IC50).
On the same count and under the same terms, in the case of `COc1ccc2c(c1)CCC(CC1C=CN(Cc3ccccc3Cl)C=C1C(C)=O)C2=O` (stereo not drawn) [Compound 157, 2-[[3-acetyl-1-[(2-chlorphenyl)methyl]-4H-pyridin-4-yl]methyl]-6-methoxy-tetralin-1-one] it was 5780 nM.
The molecule `CC(=O)C1=CN(Cc2ccccc2C)C=CC1CC1Cc2cc(C)ccc2C1=O` (stereo not drawn) [Compound 163, 2-[[3-acetyl-1-(o-tolylmethyl)-4H-pyridin-4-yl]methyl]-5-methyl-indan-1-one] registered an IC50 in assay [1] of 4820 nM.
Take `COc1ccc2c(c1)CC(CC1C=CN(Cc3ccccc3C)C=C1C(C)=O)C2=O` (stereo not drawn) [Compound 164, 2-[[3-acetyl-1-(o-tolylmethyl)-4H-pyridin-4-yl]methyl]-5-methoxy-indan-1-one]: the 50% inhibitory concentration (IC50) in assay [1] stood at 5440 nM.
In assay [1], `CC(=O)C1=CN(Cc2ccccc2C)C=CC1CC1Cc2cc3c(cc2C1=O)OCO3` (stereo not drawn) [Compound 165, 6-[[3-acetyl-1-(o-tolylmethyl)-4H-pyridin-4-yl]methyl]-5,6-dihydrocyclopenta[f][1,3]benzodioxol-7-one] displayed an IC50 of 4610 nM.
Regarding `COc1cc2c(cc1OC)C(=O)C(CC1C=CN(Cc3ccccc3C)C=C1C(C)=O)C2` (stereo not drawn) [Compound 169, 2-[[3-acetyl-1-(o-tolylmethyl)-4H-pyridin-4-yl]methyl]-5,6-dimethoxy-indan-1-one], in assay [2] (setting [4]), the IC50 was found to be 428 nM.
